Laboratory results reported in patent publication US9790189B2, “Disubstituted 5-fluoro pyrimidine derivatives containing a sulfondiimine group” (Bayer Pharma Aktiengesellschaft, priority 2014, dated 2017).
In brackets after ≈: the same amount, converted by molar mass.

How the values were obtained:
[1] = Thermodynamic solubility in water from powder (Method 4b); format: physicochemical; settings: aqueous buffer, thermodynamic from solid, phosphate buffer pH 6.5, 24 hrs, room temperature
Description: (§1) 4. Equilibrium Shake Flask Solubility Assays:
4b) Thermodynamic Solubility in Water from Powder
The thermodynamic solubility of compounds in water was determined by an equilibrium shake flask method (see for example: E. H. Kerns, L. Di: Drug-like Properties: Concepts, Structure Design and Methods, 276-286, Burlington, Mass., Academic Press, 2008). A saturated solution of the drug was prepared and the solution was mixed for 24 h to ensure that equilibrium was reached. The solution was centrifuged to remove the insoluble fraction and the concentration of the compound in solution was determined using a standard calibration curve. To prepare the sample, 2 mg solid compound was weighed in a 4 mL glass vial. 1 mL phosphate buffer pH 6.5 was added. The suspension was stirred for 24 hrs at room temperature. The solution was centrifuged afterwards. To prepare the sample for the standard calibration, 2 mg solid sample was dissolved in 30 mL acetonitrile. After sonification the solution was diluted with water to 50 mL. Sample and standards were quantified by HPLC with UV-detection. For each sample two injection volumes (5 and 50 μl) in triplicates were made. Three injection volumes (5 μl, 10 μl and 20 μl) were made for the standard. […]
The areas of sample- and standard injections as well as the calculation of the solubility value (in mg/l) were determined by using HPLC software (Waters Empower 2 FR).

DU145 cells = test: Proliferation assay, DU145 (crystal violet); format: cell-based; settings: Homo sapiens, DU-145, 96 h; DU145, 4 days; read-out: Inhibition of DU145 cell proliferation IC50
Description: (§2) Cultivated tumour cells (HeLa, human cervical tumour cells, ATCC CCL-2; NCI-H460, human non-small cell lung carcinoma cells, ATCC HTB-177; A2780, human ovarian carcinoma cells, ECACC #93112519; DU 145, hormone-independent human prostate carcinoma cells, ATCC HTB-81; HeLa-MaTu-ADR, multidrug-resistant human cervical carcinoma cells, EPO-GmbH Berlin; Caco-2, human colorectal carcinoma cells, ATCC HTB-37; B16F10, mouse melanoma cells, ATCC CRL-6475) were plated at a density of 5,000 cells/well (DU145, HeLa-MaTu-ADR), 3,000 cells/well (NCI-H460, HeLa), 2,500 cells/well (A2780), 1,500 cells/well (Caco-2), or 1,000 cells/well (B16F10) in a 96-well multititer plate in 200 μL of their respective growth medium supplemented 10% fetal calf serum. After 24 hours, the cells of one plate (zero-point plate) were stained with crystal violet (see below), while the medium of the other plates was replaced by fresh culture medium (200 μl), to which the test substances were added in various concentrations (0 μM, as well as in the range of 0.001-10 μM; the final concentration of the solvent dimethyl sulfoxide was 0.5%). The cells were incubated for 4 days in the presence of test substances. Cell proliferation was determined by staining the cells with crystal violet: the cells were fixed by adding 20 μl/measuring point of an 11% glutaric aldehyde solution for 15 minutes at room temperature. After three washing cycles of the fixed cells with water, the plates were dried at room temperature. The cells were stained by adding 100 μl/measuring point of a 0.1% crystal violet solution (pH 3.0). After three washing cycles of the stained cells with water, the plates were dried at room temperature. The dye was dissolved by adding 100 μl/measuring point of a 10% acetic acid solution. The extinction was determined by photometry at a wavelength of 595 nm. The change of cell number, in percent, was calculated by normalization of the measured values to the extinction values of the zero-point plate (=0%) and the extinction of the untreated (0 μm) cells (=100%).

[2] = Equilibrium shake flask solubility, high throughput from DMSO solution (Method 4a); format: physicochemical; settings: phosphate buffer pH 6.5 with 1% DMSO, aqueous buffer, phosphate buffer pH 6.5, 24 hrs, room temperature
Source text: as §1
4a) High Throughput Determination of Aqueous Drug Solubility (100 mmolar in DMSO)
The high throughput screening method to determine aqueous drug solubility is based on:
Thomas Onofrey and Greg Kazan, Performance and correlation of a 96-well high throughput screening method to determine aqueous drug solubility, http://www.millipore.com/publications.nsf/a73664f9f981af8c852569b9005b4eee/e565516fb76e7435852 56da30052db77/$FILE/AN1731EN00.pdf
The assay was run in a 96-well plate format. Each well was filled with an individual compound.
All pipetting steps were performed using a robot platform.
100 μl of a 10 mmolar solution of drug in DMSO were concentrated by vacuum centrifugation and resolved in 10 μl DMSO. 990 μl phosphate buffer pH 6.5 were added. The content of DMSO amounts to 1%. The multititer plate was put on a shaker and mixed for 24 hrs at room temperature. 150 μl of the suspension were transferred to a filtration plate. After filtration using a vacuum manifold the filtrate was diluted 1:400 and 1:8000. A second microtiter plate with 20 μl of a 10 mM solution of drug in DMSO served for calibration. Two concentrations (0.005 μM and 0.0025 μM) were prepared by dilution in DMSO/water 1:1 and used for calibration. Filtrate and calibration plates were quantified by HPLC-MS/MS.
Preparation of 0.1 m Phosphate Buffer pH 6.5:
61.86 g NaCl and 39.54 mg KH2PO4 were solved in water and filled up to […]. The mixture was diluted 1:10 with water and the pH adjusted to 6.5 by NaOH.
Materials: • Millipore MultiScreenHTS-HV Plate 0.45 μm
Chromatographic conditions were as follows: • HPLC column: Ascentis Express C18 2.7 μm 4.6×30 mm • Injection volume: 1 μl • Flow: 1.5 ml/min • Mobile phase: acidic gradient • A: Water/0.05% HCOOH • B: Acetonitrile/0.05% HCOOH • 0 min→95% A 5% B • 0.75 min→5% A 95% B • 2.75 min→5% A 95% B • 2.76 min→95% A 5% B • 3 min→95% A 5% B
The areas of sample- and calibration injections were determined by using mass spectromety software (AB SCIEX: Discovery Quant 2.1.3. and Analyst 1.6.1). The calculation of the solubility value (in mg/l) was executed by an inhouse developed Excel macro.

A2780 cells = test: Proliferation assay, A2780 (crystal violet); format: cell-based; settings: Homo sapiens, 96 h; A2780, 4 days; read-out: Inhibition of A2780 cell proliferation IC50
Description: as §2

Caco-2 cells = test: Proliferation assay, Caco-2 (crystal violet); format: cell-based; settings: Homo sapiens, 96 h; Caco-2, 4 days; read-out: Inhibition of Caco-2 cell proliferation IC50
Description: as §2

HeLa cells = test: Proliferation assay, HeLa (crystal violet); format: cell-based; settings: Homo sapiens, 96 h, 4 days, read-out: Inhibition of HeLa cell proliferation IC50
Description: as §2

NCI-H460 cells = test: Proliferation assay, NCI-H460 (crystal violet); format: cell-based; settings: Homo sapiens, 96 h; NCI-H460, 4 days; read-out: Inhibition of NCI-H460 cell proliferation IC50
Description: as §2

B16F10 cells = test: Proliferation assay, B16F10 (crystal violet); format: cell-based; settings: Mus musculus, B16-F10, 96 h; B16F10, 4 days; read-out: Inhibition of B16F10 cell proliferation IC50
Description: as §2

[3] = Caco-2 permeation assay (Method 5); format: in vitro ADME; settings: human, pH 7.2, Caco-2, 2 μM test compound, 2 h
Description: Cells were maintained at 37° C. in a humidified 5% CO2 atmosphere. Medium was changed every 2-3 day. Before running the permeation assay, the culture medium was replaced by a FCS-free hepes-carbonate transport buffer (pH 7.2). For assessment of monolayer integrity the transepithelial electrical resistance (TEER) was measured. Test compounds were predissolved in DMSO and added either to the apical or basolateral compartment in final concentration of 2 μM in transport buffer. Before and after 2 h incubation at 37° C. samples were taken from both compartments. Analysis of compound content was done after precipitation with methanol by LC/MS/MS analysis. Permeability (Papp) was calculated in the apical to basolateral (A→B) and basolateral to apical (B→A) directions. […] The efflux ratio basolateral (B) to apical (A) was calculated by dividing the Papp B−A by the Papp A−B. In addition the compound recovery was calculated.

HeLa-MaTu-ADR cells = test: Proliferation assay, HeLa-MaTu-ADR (crystal violet); format: cell-based; settings: Homo sapiens, 96 h, 4 days, read-out: Inhibition of HeLa-MaTu-ADR cell proliferation IC50
Description: as §2

solubility thermodynamic at 24 h [1]: 91 µg/mL (≈ 216 µM) | IC50 (DU145 cells): 341 nM | solubility thermodynamic at 24 h [2]: 155 µg/mL (≈ 368 µM) | IC50 (A2780 cells): 201 nM | IC50 (Caco-2 cells): 386 nM | IC50 (HeLa cells): 252 nM | IC50 (NCI-H460 cells): 351 nM | IC50 (B16F10 cells): 532 nM | Papp A→B at 2 h, 2 µM ([3]; read-out: Papp A−B (Mari)): 5 ×10⁻⁶ cm/s | Papp B→A at 2 h, 2 µM ([3]; read-out: Papp B−A (Mari)): 28 ×10⁻⁶ cm/s | IC50 (HeLa-MaTu-ADR cells): 327 nM
SMILES: COc1cc(F)ccc1-c1nc(Nc2cc(F)cc(CS(C)(=N)=N)c2)ncc1F [Example 1, 5-Fluoro-4-(4-fluoro-2-methoxyphenyl)-N-{3-fluoro-5-[(S-methylsulfonodiimidoyl)methyl]phenyl}pyrimidin-2-amine]
